{"source": "paper PMC4153739", "about": "(Biochemistry, 2012)", "key": {"[1]": {"biological_target": "NR1-2b/NR2C NMDA receptor (Rattus norvegicus, UniProt P35439+Q00961)", "sequence (Q00961 20-1237, other chains not shown)": "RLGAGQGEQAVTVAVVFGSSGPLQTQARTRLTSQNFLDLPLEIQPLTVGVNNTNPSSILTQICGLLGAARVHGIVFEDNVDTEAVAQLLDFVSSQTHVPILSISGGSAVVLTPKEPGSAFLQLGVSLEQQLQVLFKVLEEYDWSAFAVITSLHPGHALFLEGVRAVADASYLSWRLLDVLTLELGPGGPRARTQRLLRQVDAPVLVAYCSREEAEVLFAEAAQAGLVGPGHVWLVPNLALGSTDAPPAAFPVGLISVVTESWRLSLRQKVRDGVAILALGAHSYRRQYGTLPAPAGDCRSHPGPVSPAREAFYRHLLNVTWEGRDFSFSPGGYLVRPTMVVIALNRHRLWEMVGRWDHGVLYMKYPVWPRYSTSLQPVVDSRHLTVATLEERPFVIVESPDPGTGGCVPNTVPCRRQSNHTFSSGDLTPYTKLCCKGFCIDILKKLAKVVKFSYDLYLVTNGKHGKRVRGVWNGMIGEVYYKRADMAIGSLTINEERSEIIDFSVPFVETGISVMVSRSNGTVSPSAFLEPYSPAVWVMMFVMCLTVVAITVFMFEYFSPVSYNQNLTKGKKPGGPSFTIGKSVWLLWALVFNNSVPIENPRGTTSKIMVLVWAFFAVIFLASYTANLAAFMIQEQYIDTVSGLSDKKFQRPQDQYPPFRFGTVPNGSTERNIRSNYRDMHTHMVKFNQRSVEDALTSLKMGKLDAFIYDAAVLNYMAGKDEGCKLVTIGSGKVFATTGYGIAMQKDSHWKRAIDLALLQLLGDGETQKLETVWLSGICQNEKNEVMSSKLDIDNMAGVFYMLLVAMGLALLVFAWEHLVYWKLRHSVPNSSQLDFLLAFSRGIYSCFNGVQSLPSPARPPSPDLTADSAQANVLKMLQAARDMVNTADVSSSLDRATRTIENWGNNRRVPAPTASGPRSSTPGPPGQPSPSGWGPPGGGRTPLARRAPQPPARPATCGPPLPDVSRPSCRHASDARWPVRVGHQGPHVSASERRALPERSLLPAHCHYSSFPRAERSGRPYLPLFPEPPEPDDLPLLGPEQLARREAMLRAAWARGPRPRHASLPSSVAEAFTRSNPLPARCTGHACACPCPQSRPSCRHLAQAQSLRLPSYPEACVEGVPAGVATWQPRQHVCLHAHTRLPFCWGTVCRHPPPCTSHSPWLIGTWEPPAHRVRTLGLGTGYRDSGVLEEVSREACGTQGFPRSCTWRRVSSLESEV", "format": "cell-based", "conditions": "10 µM"}, "[2]": {"system": "NR1–2a-containing NMDA receptor subtypes", "format": "cell-based, rat", "conditions": "10 µM"}, "[3]": {"format": "physicochemical", "conditions": "pH 7"}, "[4]": {"biological_target": "NR1-2b/NR2D NMDA receptor (Rattus norvegicus, UniProt P35439+Q62645)", "sequence (Q62645 28-1323, other chains not shown)": "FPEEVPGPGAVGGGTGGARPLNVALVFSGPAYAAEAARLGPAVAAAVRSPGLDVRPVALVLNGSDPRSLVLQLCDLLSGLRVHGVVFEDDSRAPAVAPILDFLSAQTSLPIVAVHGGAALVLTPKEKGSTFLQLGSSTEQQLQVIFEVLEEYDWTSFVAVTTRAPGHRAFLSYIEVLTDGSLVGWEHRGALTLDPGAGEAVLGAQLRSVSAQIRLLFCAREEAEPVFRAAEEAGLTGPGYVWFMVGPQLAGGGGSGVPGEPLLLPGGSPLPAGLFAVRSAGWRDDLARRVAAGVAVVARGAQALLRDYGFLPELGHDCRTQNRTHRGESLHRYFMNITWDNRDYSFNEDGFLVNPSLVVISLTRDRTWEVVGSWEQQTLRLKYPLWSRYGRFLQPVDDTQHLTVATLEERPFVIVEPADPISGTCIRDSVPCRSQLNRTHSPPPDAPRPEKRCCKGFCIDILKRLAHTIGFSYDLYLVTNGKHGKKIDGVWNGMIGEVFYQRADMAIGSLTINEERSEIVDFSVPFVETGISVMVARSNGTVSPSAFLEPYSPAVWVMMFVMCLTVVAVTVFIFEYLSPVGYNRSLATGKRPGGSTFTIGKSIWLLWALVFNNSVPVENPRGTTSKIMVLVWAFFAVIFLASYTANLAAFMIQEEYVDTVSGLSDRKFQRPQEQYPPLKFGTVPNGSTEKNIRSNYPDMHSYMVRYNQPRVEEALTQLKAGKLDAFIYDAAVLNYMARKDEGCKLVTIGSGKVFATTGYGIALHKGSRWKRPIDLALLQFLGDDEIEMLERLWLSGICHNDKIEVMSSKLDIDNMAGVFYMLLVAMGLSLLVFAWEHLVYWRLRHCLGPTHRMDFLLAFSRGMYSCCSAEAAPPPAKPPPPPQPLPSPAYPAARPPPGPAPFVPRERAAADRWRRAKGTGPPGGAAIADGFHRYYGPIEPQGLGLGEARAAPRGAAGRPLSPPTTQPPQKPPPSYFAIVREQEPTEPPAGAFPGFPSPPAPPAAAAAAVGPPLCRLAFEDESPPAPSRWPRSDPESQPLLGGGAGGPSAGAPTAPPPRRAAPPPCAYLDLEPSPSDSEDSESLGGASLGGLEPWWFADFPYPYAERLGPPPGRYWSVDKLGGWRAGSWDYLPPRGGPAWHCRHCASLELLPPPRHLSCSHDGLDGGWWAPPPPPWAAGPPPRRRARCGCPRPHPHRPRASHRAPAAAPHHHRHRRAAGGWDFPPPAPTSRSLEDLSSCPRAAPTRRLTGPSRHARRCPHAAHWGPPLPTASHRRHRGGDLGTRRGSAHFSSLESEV", "format": "cell-based", "conditions": "10 µM"}, "[5]": {"biological_target": "NR1-2b/NR2B NMDA receptor (Rattus norvegicus, UniProt P35439+Q00960)", "sequence (Q00960 27-1482, other chains not shown)": "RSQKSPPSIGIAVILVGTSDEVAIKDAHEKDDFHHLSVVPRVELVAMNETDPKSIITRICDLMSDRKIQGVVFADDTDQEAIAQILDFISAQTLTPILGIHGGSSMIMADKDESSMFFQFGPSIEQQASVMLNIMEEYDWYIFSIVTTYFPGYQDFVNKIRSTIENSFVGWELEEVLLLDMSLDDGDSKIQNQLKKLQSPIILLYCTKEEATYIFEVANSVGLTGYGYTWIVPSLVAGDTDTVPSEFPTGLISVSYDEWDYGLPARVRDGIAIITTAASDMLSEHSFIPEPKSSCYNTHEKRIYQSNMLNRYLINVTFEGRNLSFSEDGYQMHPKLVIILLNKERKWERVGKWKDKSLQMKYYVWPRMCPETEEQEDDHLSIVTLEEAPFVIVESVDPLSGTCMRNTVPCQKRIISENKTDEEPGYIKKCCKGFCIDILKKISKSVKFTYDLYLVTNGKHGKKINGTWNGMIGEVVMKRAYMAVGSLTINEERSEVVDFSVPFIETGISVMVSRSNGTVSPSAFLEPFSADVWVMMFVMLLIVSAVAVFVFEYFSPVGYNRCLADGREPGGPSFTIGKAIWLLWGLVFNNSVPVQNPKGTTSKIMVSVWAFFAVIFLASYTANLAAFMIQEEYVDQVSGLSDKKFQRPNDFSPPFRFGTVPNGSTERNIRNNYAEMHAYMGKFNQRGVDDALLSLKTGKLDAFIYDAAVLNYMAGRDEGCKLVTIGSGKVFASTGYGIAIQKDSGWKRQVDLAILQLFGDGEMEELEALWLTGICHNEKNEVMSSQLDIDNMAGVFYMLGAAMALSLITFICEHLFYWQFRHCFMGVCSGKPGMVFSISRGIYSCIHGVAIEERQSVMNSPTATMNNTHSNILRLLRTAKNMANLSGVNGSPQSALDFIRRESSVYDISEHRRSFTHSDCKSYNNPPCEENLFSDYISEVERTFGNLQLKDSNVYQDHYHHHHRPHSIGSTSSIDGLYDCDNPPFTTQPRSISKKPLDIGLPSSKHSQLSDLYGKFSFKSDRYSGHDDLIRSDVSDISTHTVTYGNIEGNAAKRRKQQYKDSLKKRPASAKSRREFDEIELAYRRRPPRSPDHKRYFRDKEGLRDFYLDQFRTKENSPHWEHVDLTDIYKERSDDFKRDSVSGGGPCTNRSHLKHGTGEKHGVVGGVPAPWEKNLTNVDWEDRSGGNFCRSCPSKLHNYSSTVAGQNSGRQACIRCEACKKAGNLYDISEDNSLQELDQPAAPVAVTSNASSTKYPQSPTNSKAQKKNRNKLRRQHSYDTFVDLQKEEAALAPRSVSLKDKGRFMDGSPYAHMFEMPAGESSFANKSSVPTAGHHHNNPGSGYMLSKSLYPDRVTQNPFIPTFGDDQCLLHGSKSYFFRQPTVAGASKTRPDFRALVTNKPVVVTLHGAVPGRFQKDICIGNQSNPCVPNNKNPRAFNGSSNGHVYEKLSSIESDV", "format": "cell-based"}, "[6]": {"system": "6 Hz partial psychomotor seizure"}}}
{"smiles": "CC(C)C[C@H](NC(=O)[C@H](CC(C(=O)O)C(=O)O)NC(=O)[C@H](CCCNC(=N)N)NC(=O)[C@H](C)NC(=O)[C@H](Cc1ccccc1)NC(=O)[C@H](CC(C(=O)O)C(=O)O)NC(=O)[C@@H]1C[C@@H](O)CN1C(=O)[C@H](C)NC(=O)[C@H](CCCCN)NC(=O)[C@H](CC(C(=O)O)C(=O)O)NC(=O)[C@H](C)NC(=O)[C@H](CC(C)C)NC(=O)[C@H](CC(C(=O)O)C(=O)O)NC(=O)[C@H](CC(C(=O)O)C(=O)O)NC(=O)[C@H](CCC(=O)O)NC(=O)CN)C(=O)N[C@@H](C)C(=O)N[C@@H](CC(N)=O)C(N)=O", "note": "[ConRl-B]", "values": [{"measurement": "antagonist activity at the highest concentration tested, NR2C", "setting": "[1]", "value": "little or no antagonist activity"}, {"measurement": "potency on NR1-2a-containing subtypes", "setting": "[2]", "value": "little or no potency"}, {"measurement": "estimated helical content in the presence of calcium", "setting": "[3]", "value": 59, "unit": "%"}, {"measurement": "estimated percentage of helicity in the absence of calcium", "setting": "[3]", "value": 10, "unit": "%"}, {"measurement": "percent of helical transition induced by calcium", "setting": "[3]", "value": 49, "unit": "%"}, {"measurement": "antagonist activity at the highest concentration tested, NR2D", "setting": "[4]", "value": "little or no antagonist activity"}, {"measurement": "discrimination between NR2B and all other NR2 subunits", "setting": "[5]", "value": "at least 100 fold"}, {"measurement": "rectal body temperature versus saline control group", "setting": "[6]; mouse, in vivo", "value": "did not differ between groups"}, {"measurement": "mice protected from seizures", "setting": "[6]; n=8", "value": 50, "unit": "%"}]}
